Numbering of substitutions follows the chain as printed. One block for each compound: values may come before it.
Assays:
Format in all cases: binding
[1] = molecular target: T1, ORP9L (Homo sapiens, UniProt Q96SU4); assay: inhibition of CTL extraction from liposomes (FRET); conditions: equimolar cholesterol and CTL (2.5 mol% each); pH 7.4, 30 °C
T1 construct: gene OSBPL9; full-length long variant, C-terminal V5-His tag (stated for the HH/AA mutant)
T1 sequence (Q96SU4 2-736): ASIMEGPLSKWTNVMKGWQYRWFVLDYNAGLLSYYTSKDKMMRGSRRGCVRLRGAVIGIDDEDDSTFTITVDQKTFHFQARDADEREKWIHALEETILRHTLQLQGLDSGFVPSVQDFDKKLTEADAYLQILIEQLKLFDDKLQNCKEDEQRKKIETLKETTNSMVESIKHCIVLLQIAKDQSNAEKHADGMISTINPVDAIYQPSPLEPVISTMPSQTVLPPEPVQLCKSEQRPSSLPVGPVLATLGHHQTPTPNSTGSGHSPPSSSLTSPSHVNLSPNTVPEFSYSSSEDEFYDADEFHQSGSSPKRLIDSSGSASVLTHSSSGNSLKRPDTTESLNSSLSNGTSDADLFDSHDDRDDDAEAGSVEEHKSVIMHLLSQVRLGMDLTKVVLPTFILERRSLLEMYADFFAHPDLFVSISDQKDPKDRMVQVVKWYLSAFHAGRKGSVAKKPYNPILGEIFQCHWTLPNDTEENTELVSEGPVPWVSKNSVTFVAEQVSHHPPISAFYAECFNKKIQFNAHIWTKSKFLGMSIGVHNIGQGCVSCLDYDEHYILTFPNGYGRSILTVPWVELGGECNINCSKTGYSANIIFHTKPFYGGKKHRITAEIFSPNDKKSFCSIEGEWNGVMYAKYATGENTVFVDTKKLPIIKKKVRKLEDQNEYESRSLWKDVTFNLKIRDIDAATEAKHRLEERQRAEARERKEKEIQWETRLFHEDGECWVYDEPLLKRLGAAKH

[2] = molecular target: T2, ORP9S (Homo sapiens, UniProt Q96SU4); assay: […]PI-4P extraction from liposomes, sedimentation; conditions: pH 7.4, 25 °C, 20 min; 0.1 mM liposomes with 0.5 mol% PI-4P; labelled compound
T2 construct: gene OSBPL9; short variant lacking N-terminal PH domain, His-tagged
T2 sequence (Q96SU4 100-736 limits assumed): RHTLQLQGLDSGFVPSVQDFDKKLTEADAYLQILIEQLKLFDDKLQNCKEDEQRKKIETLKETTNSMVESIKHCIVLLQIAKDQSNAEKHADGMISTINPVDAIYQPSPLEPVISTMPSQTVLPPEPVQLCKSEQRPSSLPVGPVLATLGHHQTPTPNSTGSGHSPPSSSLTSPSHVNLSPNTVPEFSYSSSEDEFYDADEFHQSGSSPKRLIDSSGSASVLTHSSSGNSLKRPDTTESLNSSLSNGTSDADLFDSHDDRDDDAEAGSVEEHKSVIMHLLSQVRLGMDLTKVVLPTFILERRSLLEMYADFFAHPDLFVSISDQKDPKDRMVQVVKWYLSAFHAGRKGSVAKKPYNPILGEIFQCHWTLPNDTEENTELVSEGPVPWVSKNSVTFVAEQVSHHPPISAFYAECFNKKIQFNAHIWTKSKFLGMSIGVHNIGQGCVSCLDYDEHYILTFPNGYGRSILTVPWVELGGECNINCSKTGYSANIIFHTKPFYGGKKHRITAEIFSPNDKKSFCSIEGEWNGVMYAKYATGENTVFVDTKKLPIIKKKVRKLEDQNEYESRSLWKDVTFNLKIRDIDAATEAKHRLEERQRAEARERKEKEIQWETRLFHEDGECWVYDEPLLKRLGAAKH

[3] = molecular target: T1, ORP9L; assay: as above; conditions: pH 7.4, 25 °C, 20 min; 0.1 mM liposomes with 0.5 mol% PI-4P; labelled compound
[4] = molecular target: T3, ORP9L (Homo sapiens, UniProt Q96SU4, H501A/H502A, form not given); assay: as above; conditions: 100 pmol protein; pH 7.4, 25 °C, 20 min; labelled compound
T3 construct: gene OSBPL9; full-length long variant, C-terminal V5-His tag (stated for the HH/AA mutant)
T3 sequence (Q96SU4 2-736 H501A/H502A): T1 sequence (Q96SU4 2-736) with H500A, H501A

[5] = molecular target: T4, Osh6 (Saccharomyces cerevisiae, UniProt Q02201); assay: [3H]PS extraction from liposomes, sedimentation; conditions: 100 pmol protein; pH 7.4, 25 °C, 20 min; labelled compound
T4 construct: hexahistidine-SUMO3-tagged, expressed in bacteria
T4 sequence (Q02201 1-448): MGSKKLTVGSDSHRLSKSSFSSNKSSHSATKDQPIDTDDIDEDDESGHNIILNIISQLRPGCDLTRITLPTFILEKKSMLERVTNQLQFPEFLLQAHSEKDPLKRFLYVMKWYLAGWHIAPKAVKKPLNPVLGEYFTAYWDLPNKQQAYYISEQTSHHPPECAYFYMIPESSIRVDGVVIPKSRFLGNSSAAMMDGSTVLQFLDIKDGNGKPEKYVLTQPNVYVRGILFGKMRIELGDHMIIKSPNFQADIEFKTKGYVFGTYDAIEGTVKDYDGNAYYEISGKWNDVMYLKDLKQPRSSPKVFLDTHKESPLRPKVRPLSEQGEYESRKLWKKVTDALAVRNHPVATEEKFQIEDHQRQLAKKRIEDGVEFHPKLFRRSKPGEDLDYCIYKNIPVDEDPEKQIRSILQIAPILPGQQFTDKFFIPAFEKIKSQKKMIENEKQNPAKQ

% inhibition of CTL extraction [1]: 50%
Compound: CC(C)CCC[C@@H](C)[C@H]1CC[C@H]2[C@@H]3CC=C4C[C@@H](O)CC[C@]4(C)[C@H]3CC[C@]12C [cholesterol]

% extraction [2]: 14% | % maximal extraction [3]: 9% | % reduction of extraction versus wild type [4]: > 75%
Compound: PI-4P

% extraction [5]: ~ 2%
Compound: phosphatidylserine

— article PMC4177916, “Characterization of the Sterol and Phosphatidylinositol 4-Phosphate Binding Properties of Golgi-Associated OSBP-Related Protein 9 (ORP9)” (PLoS ONE, 2014)
